In ChEMBL document CHEMBL1221226 (Nat Chem Biol, 2009):

What was measured:
[1] = target: Glucagon-like peptide 1 receptor (Homo sapiens, UniProt P43220); test: Agonist activity at GLP1R expressed in HEK293 cells assessed as stimulation of cAMP production by luciferase reporter gene assay; format: functional, cell-based
[2] = target: Glucagon receptor (Homo sapiens, UniProt P47871); test: Agonist activity at GCGR expressed in HEK293 cells assessed as stimulation of cAMP production by luciferase reporter gene assay; format: functional, cell-based
Glucagon receptor, sequence (P47871 whole entry): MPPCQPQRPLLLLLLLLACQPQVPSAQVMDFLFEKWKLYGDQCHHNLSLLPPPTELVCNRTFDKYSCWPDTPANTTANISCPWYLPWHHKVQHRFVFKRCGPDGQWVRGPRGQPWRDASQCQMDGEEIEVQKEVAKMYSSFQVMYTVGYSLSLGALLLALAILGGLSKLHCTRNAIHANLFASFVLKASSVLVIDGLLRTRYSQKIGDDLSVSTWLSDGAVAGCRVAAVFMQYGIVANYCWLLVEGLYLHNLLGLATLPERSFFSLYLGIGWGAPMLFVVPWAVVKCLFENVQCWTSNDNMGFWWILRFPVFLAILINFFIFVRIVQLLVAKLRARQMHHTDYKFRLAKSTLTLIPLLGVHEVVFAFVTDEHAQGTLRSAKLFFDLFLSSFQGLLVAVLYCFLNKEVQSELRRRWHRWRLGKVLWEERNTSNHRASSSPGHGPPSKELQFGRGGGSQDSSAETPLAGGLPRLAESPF

Glucagon-like peptide 1 receptor, sequence (P43220 whole entry): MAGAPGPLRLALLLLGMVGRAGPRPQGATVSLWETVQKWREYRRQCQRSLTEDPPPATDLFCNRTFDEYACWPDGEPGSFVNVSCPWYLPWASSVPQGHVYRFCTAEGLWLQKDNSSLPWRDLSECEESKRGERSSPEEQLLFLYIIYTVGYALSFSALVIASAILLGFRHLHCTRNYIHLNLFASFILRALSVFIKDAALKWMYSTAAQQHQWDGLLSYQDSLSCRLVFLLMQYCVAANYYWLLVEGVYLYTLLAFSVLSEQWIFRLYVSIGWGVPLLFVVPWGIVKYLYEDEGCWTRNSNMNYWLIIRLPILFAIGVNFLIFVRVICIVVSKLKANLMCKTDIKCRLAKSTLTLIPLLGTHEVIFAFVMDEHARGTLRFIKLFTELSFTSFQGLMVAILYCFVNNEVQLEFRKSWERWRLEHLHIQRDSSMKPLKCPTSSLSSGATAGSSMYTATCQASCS

| EC50 [1] [pM] | EC50 [2] [pM] | SMILES |
| --- | --- | --- |
| 28 | 87 | CSCC[C@H](NC(=O)[C@H](CC(C)C)NC(=O)[C@H](Cc1c[nH]c2ccccc12)NC(=O)[C@H](CCC(N)=O)NC(=O)[C@@H](NC(=O)[C@H](Cc1ccccc1)NC(=O)[C@H](CC(=O)O)NC(=O)[C@H](CCCCN)NC(=O)[C@H](C)NC(=O)[C@H](C)NC(=O)[C@H](CCCNC(=N)N)NC(=O)[C@H](CCC(=O)O)NC(=O)[C@H](CC(=O)O)NC(=O)[C@H](CC(C)C)NC(=O)[C@H](Cc1ccc(O)cc1)NC(=O)[C@H](CCCCN)NC(=O)[C@H](CO)NC(=O)[C@H](Cc1ccc(O)cc1)NC(=O)[C@H](CC(=O)O)NC(=O)[C@H](CO)NC(=O)[C@@H](NC(=O)[C@H](Cc1ccccc1)NC(=O)[C@@H](NC(=O)CNC(=O)[C@H](CCC(N)=O)NC(=O)[C@H](CO)N[C@@H](Cc1cnc[nH]1)C(=O)O)[C@@H](C)O)[C@@H](C)O)C(C)C)C(=O)N[C@@H](CC(N)=O)C(=O)N[C@H](C(N)=O)[C@@H](C)O |
| 75 | 68 | CSCC[C@H](NC(=O)[C@H](CC(C)C)NC(=O)[C@H](Cc1c[nH]c2ccccc12)NC(=O)[C@H](CCC(N)=O)NC(=O)[C@@H](NC(=O)[C@H](Cc1ccccc1)NC(=O)[C@H](CCC(=O)O)NC(=O)[C@H](CCCCN)NC(=O)[C@H](C)NC(=O)[C@H](CCCNC(=N)N)NC(=O)[C@H](CCCNC(=N)N)NC(=O)[C@H](CCC(=O)O)NC(=O)[C@H](CC(=O)O)NC(=O)[C@H](CC(C)C)NC(=O)[C@H](Cc1ccc(O)cc1)NC(=O)[C@H](CCCCN)NC(=O)[C@H](CO)NC(=O)[C@H](Cc1ccc(O)cc1)NC(=O)[C@H](CC(=O)O)NC(=O)[C@H](CO)NC(=O)[C@@H](NC(=O)[C@H](Cc1ccccc1)NC(=O)[C@@H](NC(=O)CNC(=O)[C@H](CCC(N)=O)NC(=O)[C@H](CO)N[C@@H](Cc1cnc[nH]1)C(=O)O)[C@@H](C)O)[C@@H](C)O)C(C)C)C(=O)N[C@@H](CC(N)=O)C(=O)N[C@H](C(N)=O)[C@@H](C)O |
| 68 | 73 | CC[C@H](C)[C@H](NC(=O)[C@H](Cc1ccccc1)NC(=O)[C@H](CC(=O)O)NC(=O)[C@H](CCCCN)NC(=O)[C@H](C)NC(=O)[C@H](CCCNC(=N)N)NC(=O)[C@H](CCCNC(=N)N)NC(=O)[C@H](CCC(=O)O)NC(=O)[C@H](CC(=O)O)NC(=O)[C@H](CC(C)C)NC(=O)[C@H](Cc1ccc(O)cc1)NC(=O)[C@H](CCCCN)NC(=O)[C@H](CO)NC(=O)[C@H](Cc1ccc(O)cc1)NC(=O)[C@H](CC(=O)O)NC(=O)[C@H](CO)NC(=O)[C@@H](NC(=O)[C@H](Cc1ccccc1)NC(=O)[C@@H](NC(=O)CNC(=O)[C@H](CCC(N)=O)NC(=O)[C@H](CO)N[C@@H](Cc1cnc[nH]1)C(=O)O)[C@@H](C)O)[C@@H](C)O)C(=O)N[C@@H](CCC(N)=O)C(=O)N[C@@H](Cc1c[nH]c2ccccc12)C(=O)N[C@@H](CC(C)C)C(=O)N[C@@H](CCSC)C(=O)N[C@@H](CC(N)=O)C(=O)N[C@H](C(=O)N[C@H](C(N)=O)[C@@H](C)O)[C@@H](C)O |
| 110 | 3700 | CSCC[C@H](NC(=O)[C@H](CC(C)C)NC(=O)[C@H](Cc1c[nH]c2ccccc12)NC(=O)[C@H](CCC(N)=O)NC(=O)[C@@H](NC(=O)[C@H](Cc1ccccc1)NC(=O)[C@H](CC(=O)O)NC(=O)[C@H](CCC(N)=O)NC(=O)[C@H](C)NC(=O)[C@H](CCCNC(=N)N)NC(=O)[C@H](CCCNC(=N)N)NC(=O)[C@H](CCC(=O)O)NC(=O)[C@H](CC(=O)O)NC(=O)[C@H](CC(C)C)NC(=O)[C@H](Cc1ccc(O)cc1)NC(=O)[C@H](CCCCN)NC(=O)[C@H](CO)NC(=O)[C@H](Cc1ccc(O)cc1)NC(=O)[C@H](CC(=O)O)NC(=O)[C@H](CO)NC(=O)[C@@H](NC(=O)[C@H](Cc1ccccc1)NC(=O)[C@@H](NC(=O)CNC(=O)[C@H](CCC(=O)O)NC(=O)[C@H](CO)N[C@@H](Cc1cnc[nH]1)C(=O)O)[C@@H](C)O)[C@@H](C)O)C(C)C)C(=O)N[C@@H](CC(N)=O)C(=O)N[C@H](C(N)=O)[C@@H](C)O |

The remaining lines, values behind:

| SMILES | EC50 [1] [pM] | EC50 [2] [pM] |
| --- | --- | --- |
| CSCC[C@H](NC(=O)[C@H](CC(C)C)NC(=O)[C@H](Cc1c[nH]c2ccccc12)NC(=O)[C@H](CCC(N)=O)NC(=O)[C@@H](NC(=O)[C@H](Cc1ccccc1)NC(=O)[C@H](CC(=O)O)NC(=O)[C@H](CCCCN)NC(=O)[C@H](C)NC(=O)[C@H](CCCN=C(N)N)NC(=O)[C@H](CCCN=C(N)N)NC(=O)[C@H](CCC(=O)O)NC(=O)[C@H](CC(=O)O)NC(=O)[C@H](CC(C)C)NC(=O)[C@H](Cc1ccc(O)cc1)NC(=O)[C@H](CCCCN)NC(=O)[C@H](CO)NC(=O)[C@H](Cc1ccc(O)cc1)NC(=O)[C@H](CC(=O)O)NC(=O)[C@H](CO)NC(=O)[C@@H](NC(=O)[C@H](Cc1ccccc1)NC(=O)[C@@H](NC(=O)CNC(=O)[C@H](CCC(N)=O)NC(=O)[C@H](CO)N[C@@H](Cc1cnc[nH]1)C(=O)O)[C@@H](C)O)[C@@H](C)O)C(C)C)C(=O)N[C@@H](CC(N)=O)C(=O)N[C@H](C(N)=O)[C@@H](C)O | 71 | 77 |
| CSCC[C@H](NC(=O)[C@H](CC(C)C)NC(=O)[C@H](Cc1c[nH]c2ccccc12)NC(=O)[C@H](CCC(N)=O)NC(=O)[C@@H](NC(=O)[C@H](Cc1ccccc1)NC(=O)[C@H](CC(=O)O)NC(=O)[C@H](CCCCN)NC(=O)[C@H](C)NC(=O)[C@H](CCCN=C(N)N)NC(=O)[C@H](CCC(N)=O)NC(=O)[C@H](CCC(=O)O)NC(=O)[C@H](CC(=O)O)NC(=O)[C@H](CC(C)C)NC(=O)[C@H](Cc1ccc(O)cc1)NC(=O)[C@H](CCCCN)NC(=O)[C@H](CO)NC(=O)[C@H](Cc1ccc(O)cc1)NC(=O)[C@H](CC(=O)O)NC(=O)[C@H](CO)NC(=O)[C@@H](NC(=O)[C@H](Cc1ccccc1)NC(=O)[C@@H](NC(=O)CNC(=O)[C@H](CCC(N)=O)NC(=O)[C@H](CO)N[C@@H](Cc1cnc[nH]1)C(=O)O)[C@@H](C)O)[C@@H](C)O)C(C)C)C(=O)N[C@@H](CC(N)=O)C(=O)N[C@H](C(N)=O)[C@@H](C)O | 75 | 48 |
| CSCC[C@H](NC(=O)[C@H](CC(C)C)NC(=O)[C@H](Cc1c[nH]c2ccccc12)NC(=O)[C@H](C)NC(=O)[C@@H](NC(=O)[C@H](Cc1ccccc1)NC(=O)[C@H](CC(=O)O)NC(=O)[C@H](CCCCN)NC(=O)[C@H](C)NC(=O)[C@H](CCCN=C(N)N)NC(=O)[C@H](CCCN=C(N)N)NC(=O)[C@H](CCC(=O)O)NC(=O)[C@H](CC(=O)O)NC(=O)[C@H](CC(C)C)NC(=O)[C@H](Cc1ccc(O)cc1)NC(=O)[C@H](CCCCN)NC(=O)[C@H](CO)NC(=O)[C@H](Cc1ccc(O)cc1)NC(=O)[C@H](CC(=O)O)NC(=O)[C@H](CO)NC(=O)[C@@H](NC(=O)[C@H](Cc1ccccc1)NC(=O)[C@@H](NC(=O)CNC(=O)[C@H](CCC(N)=O)NC(=O)[C@H](CO)N[C@@H](Cc1cnc[nH]1)C(=O)O)[C@@H](C)O)[C@@H](C)O)C(C)C)C(=O)N[C@@H](CC(N)=O)C(=O)N[C@H](C(N)=O)[C@@H](C)O | 87 | 80 |
